From US20260028596A1, “METHOD FOR PRODUCING HIGH YIELD AND HIGH QUALITY RECOMBINANT ADENO-[…]” (Aavatar Therapeutics Co.,Ltd., priority 2022, published 2026)

Key:
[1] = test system: Host cells capable of producing recombinant adeno-associated virus of the AAV9 serotype (Expi293F cells); assay: Osmotic shock process: viral genomes (vg) recovered from media of rAAV-producing host cells; type: cell-based; conditions: 0.5 M salt as osmotic shock reagent, added 4 days after transfection, 3 hours; vs negative control NT (FIG. 2)
Description: (§1) Expi293F cells (Cat #A14527, Thermo) were grown in Expi293 Expression Medium (Cat #A14351-02, Thermo) supplemented with 1% penicillin-streptomycin (Cat #15140122, Thermo). Then, the cells were maintained under serum-free suspension culture conditions. Herein, the serum-free suspension culture conditions were as follows: 120 rpm stirring rate in a shaker incubator (Cat #NB-206CL, N-biotek, South Korea); 37° C.; 8% CO2; and 85% relative humidity.
(§2) Expi293F cells were seeded in Expi293F expression media at a density of 2.5×10^6 cells per 1 mL and cultured for 3 hours. Then, the cells were transfected using 25-kDa linear PEI (Cat #23966-1, Polyscience, USA) along with the three plasmids (pHelper[Cat #112867, Addgene], pRC9n[Cat #112865, Addgene], and pAAV[Cat #105530, Addgene]), respectively. Specifically, the plasmids were mixed in DMEM (Cat #10569010, Thermo) at 1/10 the volume of cells to be transfected. Next, PEI was added to DNAs diluted in DMEM. After an additionally 20-minute culture, a DNA-PEI complex was added to the cells.
The following experiment was conducted to determine a yield improvement effect of the recombinant adeno-associated virus production process including the osmotic shock process depending on osmotic shock conditions:
Host cells capable of producing recombinant adeno-associated virus of the AAV9 serotype were prepared according to Experimental Examples 1.1 to 1.3.
For each experimental group, 2.5×10^6 cells per mL were seeded in a 30 mL culture vessel, and experiments were conducted using a total of 16 culture vessels for each experimental group.
On the basis of the time of transfection of the recombinant adeno-associated virus expression plasmid into the host cells, an osmotic shock reagent was added 4 days later, the condition was maintained for 3 hours, sample media and/or cells were harvested, and the viral genome was (vg) counts were measured.

[2] = test system: Host cells capable of producing a recombinant adeno-associated virus of a AAV9 serotype (Expi293F cells); assay: Pre-culture treatment process: rAAV yield (total vg) of host cells; type: cell-based; conditions: pre-culture agent with PEI (1 mg/ml), Nocodazole 4 uM and/or M344 2.5 uM, 4 hours after transfection; osmotic shock after 4 days (FIG. 3)
Description: as §1, §2
The following experiment was conducted to determine a yield improvement effect of the recombinant adeno-associated virus production process including the pre-culture treatment process depending on pre-culture treatment conditions: […]

Compound | number of viral genomes recovered from the media, by salt type [1] | yield of recombinant adeno-associated virus in the host cells [2]
[Cl-].[K+] [KCl, potassium chloride] | significant increase in the number of viral genomes recovered from the media | 
CN(C)c1ccc(C(=O)NCCCCCCC(=O)NO)cc1 [M344] |  | yield of recombinant adeno-associated virus in the host cells was increased
[Cl-].[Cl-].[Mg+2] [MgCl2, magnesium chloride] | significant increase in the number of viral genomes recovered from the media | 
[Cl-].[Na+] [NaCl, sodium chloride] | significant increase in the number of viral genomes recovered from the media | 
COC(=O)Nc1nc2ccc(C(=O)c3cccs3)cc2[nH]1 [Nocodazole] |  | yield of recombinant adeno-associated virus in the host cells was increased
